Legend:
FaDu-MAPK1 WT xenografts = assay: Erlotinib response of isogenic FaDu tumor xenografts expressing MAPK1-WT in nude mice
Source text: (§1) FaDu cells expressing MAPK1 WT, MAPK1 p.D321N and MAPK1 p.R135K respectively were inoculated into nude mice subcutaneously (8×10^5 cells per inoculation). Mice with tumor expressing respective MAPK1 WT/mutations were randomized into erlotinib (erlotinib dissolved in 10% 2-Hydroxypropyl-beta-cyclodextrin (HP-j-CD) or vehicle (10% HP-β-CD) treatment groups (N=8 tumors per group). Treatment started when tumors were palpable and reached the size ˜3×3-4×4 mm^2. Erlotinib or the vehicle control were administered by oral gavage (50 mg/kg erlotinib or the corresponding vehicle amount) for 5 consecutive days as indicated by the arrows on the X-axis. FIG. 2B: IHC staining showing membranous p-EGFR expression of these xenografts post erlotinib/vehicle treatments (N>3 per group). […] FIG. 2C: IHC staining showing corresponding pan-cytokeratin expression in these tumors post erlotinib/vehicle treatment (N>3 per group).
The VECTASTAIN Elite ABC Universal PLUS Kit Peroxidase (Horse Anti-Mouse/Rabbit IgG) (Cat: PKK-8200) was used for IHC. […]
Isogenic FaDu cells were infected with MAPK1-WT and MAPK1 mutants by retrovirus and injected into nude mice subcutaneously (8×10^5 cell per mouse, age of 4-5 weeks). […] Tumor volume was monitored and calculated by the equation: length×width^2/2 repeatedly for 5 consecutive days as indicated by the arrows on the X-axis of FIG. 2(a). […]

[1] = test system: MAPK1p.D321N mutant tumors (FaDu xenografts); assay: Erlotinib response of isogenic FaDu tumor xenografts expressing MAPK1 p.D321N in nude mice
Source text: as §1
(§2) The VECTASTAIN Elite ABC Universal PLUS Kit Peroxidase (Horse Anti-Mouse/Rabbit IgG) (Cat: PKK-8200) was used for IHC. Cytokeratin mouse antibody (DAKO, Cat: M3515, 1:500) and Anti-EGFR (phosphor Y1173) antibody [E124] (Abcam, Cat: ab32578, 1:100) were used as primary antibodies.
(§3) Isogenic FaDu cells were infected with MAPK1-WT and MAPK1 mutants by retrovirus and injected into nude mice subcutaneously (8×10^5 cell per mouse, age of 4-5 weeks). Mice injected with respective infected FaDu cells were randomized into Erlotinib treatment group or Vehicle group (2 tumors born by each mice, 4 mice per group). Treatment started at day 6 after injection with 6 dose per week until day 15. Erlotinib (dissolved in 10% HP-j-CD) or vehicle control were administered orally at a dose of 50 mg/kg. Tumor volume was monitored and calculated by the equation: length×width^2/2 repeatedly for 5 consecutive days as indicated by the arrows on the X-axis of FIG. 2(a). The mice were sacrifice at the end-point of the experiment.

[2] = test system: MAPK1p.R135K mutant xenografts (FaDu); assay: Erlotinib response of isogenic FaDu tumor xenografts expressing MAPK1 p.R135K in nude mice
Source text: as §1, §2, §3

SMILES: C#Cc1cccc(Nc2ncnc3cc(OCCOC)c(OCCOC)cc23)c1 [erlotinib]
- change in tumor size vs. vehicle control (FaDu-MAPK1 WT xenografts; erlotinib 50 mg/kg oral gavage, P=0.4080): did not result in any change in tumor size
- change in membranous p-EGFR signal in the tumors (IHC) (FaDu-MAPK1 WT xenografts; erlotinib 50 mg/kg oral, vs. vehicle control): did not result in any change
- tumor-negative (cytokeratin-negative) areas (IHC) ([1]; MAPK1p.D321N FaDu xenografts post erlotinib 50 mg/kg oral): concomitant increases in tumor-negative areas
- membranous p-EGFR signals remaining in the tumors (IHC) ([1]; MAPK1p.D321N FaDu xenografts post erlotinib 50 mg/kg oral, untreated mutants 80-90% positive cells): less than 20%
- reduction in tumor volume vs. vehicle treatment ([1]; MAPK1p.D321N FaDu xenografts, erlotinib 50 mg/kg oral gavage, P=0.0037): 60.3%
- tumor-negative (cytokeratin-negative) areas (IHC) ([2]; MAPK1p.R135K FaDu xenografts post erlotinib 50 mg/kg oral): noticeable increases in tumor-negative areas
- percent tumor cells bearing membranous p-EGFR staining (IHC) ([2]; MAPK1p.R135K FaDu xenografts post erlotinib 50 mg/kg oral, 90% in vehicle treated tumors): 50%
- tumor size reduction vs. vehicle treatment ([2]; MAPK1p.R135K FaDu xenografts, erlotinib 50 mg/kg oral gavage, trend, P=0.0646): 28.0%

Reference: patent US20210363591A1, “MAPK1 MUTATIONS AND DRUG SENSITIVITY” (The Chinese University of Hong Kong, priority 2020, published 2021)
